From paper PMC10976043, “Function and Mechanism of Antiviral Wasp Venom Peptide Protopolybia-MP III and Its Derivatives against HSV-1” (Toxins, 2024)
Where two headings read alike, the source gives them in different places. Ends that are not written are not given here.

Key:
HSV-1 ICP0 = format: cell-based, herpes simplex virus type 1; settings: for effect on intracellular HSV-1 ICP0 expression level: HSV-1 MOI 1, 24 h, Western blotting; for inhibition rate on intracellular HSV-1 ICP0 expression level: ICP0, 24 h
Experimental: (A) Amino acid sequence of Protopolybia-MP III. Basic residues are labeled blue, and acidic residues are labeled red. (B,C) Suppression of intracellular HSV-1 infection by Protopolybia-MP III. Cells were preincubated with Protopolybia-MP III at different concentrations or PBS for 1 h and then infected with HSV-1 at a multiplicity of infection (MOI) of 1. After 24 h, the cells were collected. Intracellular HSV-1 RNA was analyzed by qPCR (B), and intracellular HSV-1 ICP0 protein levels were analyzed by Western blotting (C). (D) Suppression of Protopolybia-MP III on extracellular HSV-1 particles. Cells were treated with Protopolybia-MP III at different concentrations or PBS for 24 h, and then the supernatant was collected and evaluated in a plaque formation assay. (E) Cytotoxicity of Protopolybia-MP III to Vero cells. Cells were treated with Protopolybia-MP III or PBS at different concentrations for 24 h, and then the cytotoxicity was determined by CCK8 assay. * p < 0.05. ** p < 0.01. *** p < 0.001.
(§1) Figure 2 Protopolybia-MP III inhibits HSV-1 replication in human cell lines. (A) Cytotoxicities of Protopolybia-MP III to A549 cells, HCEC, and SK-N-MC. Cells were treated with Protopolybia-MP III at different concentrations or PBS for 24 h, and then cytotoxicities were determined by the CCK8 assay. (B,C) Suppression of intracellular HSV-1 infection by Protopolybia-MP III in A549 cells, HCEC, and SK-N-MC. Cells were preincubated with Protopolybia-MP III at different concentrations or PBS for 1 h and then infected with HSV-1 at an MOI of 1. After 24 h, the cells were collected. Intracellular HSV-1 RNA was analyzed by qPCR (B), and intracellular HSV-1 ICP0 protein expression levels were analyzed by Western blotting (C). (D) Inhibition of Protopolybia-MP III on extracellular HSV-1 particles in A549 cells, HCEC, and SK-N-MC. Cells were treated with Protopolybia-MP III at different concentrations or PBS for 24 h, and then the supernatant was collected and evaluated in a plaque formation assay. * p < 0.05. ** p < 0.01. *** p < 0.001.
Figure 7 Antiviral activity analysis of Protopolybia-MP III mutants. (A) Amino acid sequences of Protopolybia-MP III mutants. Identical amino acids among Protopolybia-MP I, Protopolybia-MP III, and its mutants are marked in blue, and different amino acids are marked in red. (B) Suppression of Protopolybia-MP I, Protopolybia-MP III, and its mutants on intracellular HSV-1 content. Cells were preincubated with 20 μg/mL peptides or PBS for 1 h and then infected with HSV-1 at an MOI of 1. After 24 h, the cells were collected. Intracellular HSV-1 ICP0 protein levels were analyzed by Western blotting. The ratios of HSV-1 ICP0 to GAPDH were calculated by ImageJ software. (C) Inhibition of HSV-1 free virion infectivity by Protopolybia-MP I, Protopolybia-MP III, and its mutants. HSV-1 (MOI = 1) and 5 μg/mL peptides or PBS were coincubated at 37 °C for 1 h, and the mixtures were then used to infect Vero cells. After 24 h, cells were collected, and intracellular HSV-1 RNA was analyzed by qPCR. ns, no significance. * p < 0.05. ** p < 0.01. *** p < 0.001.
HSV-1 was kindly provided by Professor Zhijian Cao of Wuhan University. Cells were infected with HSV-1 at an MOI of 1 for 24 h. Then, cells were collected for qPCR, Western blotting, and immunofluorescence assays, and the extracellular supernatant was used for plaque formation assays.
Cells were collected and lysed in 1% SDS. The cell lysate was heated at 100 °C for 20 min and centrifuged at 12,000 rpm at 4 °C for 15 min, and then the supernatant was collected and assayed with a BCA Protein Quantification Kit (Vazyme). Equal amounts of protein were separated using a PAGE Gel Fast Preparation Kit (10%) (Epizyme Biotech, Wuhan, China) and transferred to nitrocellulose (NC) membranes (Millipore, Wuhan, China). […]

A549 cells = assay: CCK8 cytotoxicity assay, A549 cells; format: cell-based, human; settings: 40 μg/mL, 24 h
Experimental: as §1
Cells were seeded in a 96-well plate (7000–10,000 cells per well) and cultured at 37 °C overnight. Peptides in a series of concentrations were added to the medium, and cells were then incubated at 37 °C for 24 h. […] Finally, the absorbance was measured at 450 nm using a microplate reader (BioTek, Winooski, VT, USA).

“INWLKLGKAVIDAL-NH2 [Protopolybia-MP III]” was tested, and the “effect on intracellular HSV-1 ICP0 expression level” value (shortened to “effect”) (HSV-1 ICP0; A549 cells) was “strongly inhibited”, the “effect” value (HSV-1 ICP0; HCEC) was “strongly inhibited” and the “inhibition rate on intracellular HSV-1 ICP0 expression level” value (from here on “inhibition rate”) (HSV-1 ICP0; 5 μg/mL) was 67%. For the same substance, the “inhibition rate” value (HSV-1 ICP0; 10 μg/mL) was 74%, the “inhibition rate” value (HSV-1 ICP0; 20 μg/mL) was 96% and the “effect” value (HSV-1 ICP0; SK-N-MC) was “strongly inhibited”. The “cytotoxicity to A549 cells” value (A549 cells) was “almost nontoxic”.
